Columns and labels:
[1] = AUC (0 to 8 hrs) in Balb/c mouse at 5 mg/kg, iv; format: ADME, organism-based; parameters: dose 5 mg/kg, time < 8 hr, route intravenous; conditions: in vivo
[2] = Agonist activity at hamster PPAR-alpha; parameters: species or system Cricetinae
[3] = Oral bioavailability in cynomolgus monkey at 2 mg/kg; format: ADME, organism-based, Macaca fascicularis; conditions: in vivo
[4] = Half life in Sprague-Dawley rat at 4 mg/kg, iv; format: ADME, organism-based; conditions: in vivo
[5] = Cmax in Balb/c mouse at 10 mg/kg, po; format: ADME, organism-based; parameters: dose 10 mg/kg, route oral; conditions: in vivo
[6] = Oral bioavailability in Balb/c mouse at 10 mg/kg; format: ADME, organism-based; conditions: in vivo
[7] = biological target: T1, Peroxisome proliferator-activated receptor gamma (Homo sapiens, UniProt P37231); test: Binding affinity to human GST-tagged PPAR-gamma LBD expressed in Escherichia coli BL21 after 30 mins in presence of fluorescein ligand FLA-A by fluorescence polarization assay
T1 sequence (P37231 whole entry): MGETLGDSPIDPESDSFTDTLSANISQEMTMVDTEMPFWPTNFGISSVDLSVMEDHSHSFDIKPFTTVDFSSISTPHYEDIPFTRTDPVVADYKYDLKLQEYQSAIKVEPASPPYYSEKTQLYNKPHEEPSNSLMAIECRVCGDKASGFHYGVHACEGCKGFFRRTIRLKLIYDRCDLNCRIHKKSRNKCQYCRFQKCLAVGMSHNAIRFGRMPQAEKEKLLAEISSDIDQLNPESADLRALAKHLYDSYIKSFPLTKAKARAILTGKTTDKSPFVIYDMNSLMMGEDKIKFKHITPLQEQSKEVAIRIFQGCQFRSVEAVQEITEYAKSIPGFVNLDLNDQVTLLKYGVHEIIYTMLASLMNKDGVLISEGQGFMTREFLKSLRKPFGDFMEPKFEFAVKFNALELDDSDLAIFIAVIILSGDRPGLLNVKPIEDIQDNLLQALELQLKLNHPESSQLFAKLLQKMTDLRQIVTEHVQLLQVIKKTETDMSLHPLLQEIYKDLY

Syrian golden hamster [8] = test: Decrease in liver cholesterol level in high fat-diet fed syrian golden hamster model of dyslipidemia at 1 mg/kg administered qd through oral gavage measured after 21 days by FPLC analysis relative to control; format: functional, Mesocricetus auratus; parameters: scale not given: the % may be the effect or the level left
[9] = Cmax in dog at 2 mg/kg, po; format: ADME, organism-based, Canis lupus familiaris; parameters: dose 2 mg/kg, route oral; conditions: in vivo
[10] = Cmax in cynomolgus monkey at 2 mg/kg, po; format: ADME, organism-based, Macaca fascicularis; parameters: dose 2 mg/kg, route oral; conditions: in vivo
[11] = Oral bioavailability in Sprague-Dawley rat at 8 mg/kg; format: ADME, organism-based; conditions: in vivo
Cytochrome P450 3A4 = Cytochrome P450 3A4 (Homo sapiens, UniProt P08684); test: Inhibition of CYP3A4 (unknown origin); format: ADME
Chain of Cytochrome P450 3A4 (P08684 whole entry): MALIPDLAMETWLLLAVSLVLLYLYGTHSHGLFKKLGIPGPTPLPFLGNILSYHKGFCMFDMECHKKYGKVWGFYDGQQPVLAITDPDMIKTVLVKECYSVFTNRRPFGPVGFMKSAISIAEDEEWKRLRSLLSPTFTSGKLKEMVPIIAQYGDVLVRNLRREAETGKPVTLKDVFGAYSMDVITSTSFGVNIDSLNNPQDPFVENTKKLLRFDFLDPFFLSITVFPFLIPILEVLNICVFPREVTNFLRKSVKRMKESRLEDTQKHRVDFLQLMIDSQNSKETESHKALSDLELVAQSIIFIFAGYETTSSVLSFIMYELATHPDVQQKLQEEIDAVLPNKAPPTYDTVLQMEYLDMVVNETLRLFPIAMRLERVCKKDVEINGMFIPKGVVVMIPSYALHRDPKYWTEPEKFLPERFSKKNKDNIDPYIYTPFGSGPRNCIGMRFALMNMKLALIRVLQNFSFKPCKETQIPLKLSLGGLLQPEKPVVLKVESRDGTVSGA

Cytochrome P450 2C19 = Cytochrome P450 2C19 (Homo sapiens, UniProt P33261); test: Inhibition of CYP2C19 in human TC5 cells; format: ADME, cell-based
Chain of Cytochrome P450 2C19 (P33261 whole entry): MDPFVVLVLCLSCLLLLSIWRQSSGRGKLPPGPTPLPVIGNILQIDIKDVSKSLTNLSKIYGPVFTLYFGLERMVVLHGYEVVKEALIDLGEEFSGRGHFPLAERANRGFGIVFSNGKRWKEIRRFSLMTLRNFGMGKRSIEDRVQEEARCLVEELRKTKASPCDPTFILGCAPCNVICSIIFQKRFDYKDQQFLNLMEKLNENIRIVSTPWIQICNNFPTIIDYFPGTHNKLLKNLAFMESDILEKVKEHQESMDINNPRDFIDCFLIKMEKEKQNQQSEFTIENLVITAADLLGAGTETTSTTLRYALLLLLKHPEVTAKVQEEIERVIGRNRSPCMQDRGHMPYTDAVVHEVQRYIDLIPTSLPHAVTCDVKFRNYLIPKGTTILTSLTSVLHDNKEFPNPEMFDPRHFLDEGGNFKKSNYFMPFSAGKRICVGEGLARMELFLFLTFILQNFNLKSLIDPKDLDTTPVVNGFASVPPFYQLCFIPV

Syrian golden hamster [12] = test: Decrease in plasma LDL cholesterol level in high fat-diet fed syrian golden hamster model of dyslipidemia at 10 mg/kg administered qd through oral gavage measured after 21 days by FPLC analysis relative to control; format: functional, Mesocricetus auratus; parameters: scale not given: the % may be the effect or the level left
Cytochrome P450 2B6 = Cytochrome P450 2B6 (Homo sapiens, UniProt P20813); test: Inhibition of CYP2B6 (unknown origin); format: ADME
Chain of Cytochrome P450 2B6 (P20813 whole entry): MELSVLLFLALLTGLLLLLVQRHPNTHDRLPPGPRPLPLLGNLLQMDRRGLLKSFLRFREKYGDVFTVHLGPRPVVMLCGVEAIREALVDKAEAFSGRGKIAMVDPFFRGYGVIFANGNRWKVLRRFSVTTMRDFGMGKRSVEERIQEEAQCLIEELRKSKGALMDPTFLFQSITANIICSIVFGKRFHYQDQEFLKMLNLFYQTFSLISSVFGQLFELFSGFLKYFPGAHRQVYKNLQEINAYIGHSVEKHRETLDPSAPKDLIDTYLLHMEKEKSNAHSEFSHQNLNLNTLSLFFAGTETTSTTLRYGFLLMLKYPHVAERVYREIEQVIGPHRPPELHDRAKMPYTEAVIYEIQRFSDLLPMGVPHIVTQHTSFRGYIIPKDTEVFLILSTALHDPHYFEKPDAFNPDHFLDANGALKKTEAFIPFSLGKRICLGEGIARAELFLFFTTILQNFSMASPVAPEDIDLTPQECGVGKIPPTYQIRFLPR

[13] = AUC (0 to 8 hrs) in Sprague-Dawley rat at 4 mg/kg, iv; format: ADME, organism-based; parameters: time < 8 hr, dose 4 mg/kg, route intravenous; conditions: in vivo
HEK293 = test: Selectivity ratio of EC50 for Gal4-tagged human PPAR-gamma expressed in HEK cells to EC50 for Gal4-tagged human PPAR-alpha expressed in HEK cells; format: cell-based
Homo sapiens = species: Homo sapiens; test: Inhibition of sodium channel (unknown origin) assessed as channel block at 10 uM and 1 Hz by electrophysiology method
[14] = Tmax in cynomolgus monkey at 2 mg/kg, po; format: ADME, organism-based, Macaca fascicularis; conditions: in vivo
[15] = Plasma clearance in cynomolgus monkey at 1 mg/kg, iv; format: ADME, organism-based, Macaca fascicularis
Syrian golden hamster [16] = test: Decrease in plasma triglyceride level in high fat-diet fed syrian golden hamster model of dyslipidemia at 1 mg/kg administered qd through oral gavage measured after 21 days by FPLC analysis relative to control; format: functional, Mesocricetus auratus; parameters: scale not given: the % may be the effect or the level left
[17] = Protein binding in cynomolgus monkey plasma; format: ADME, cell-free, Macaca fascicularis; conditions: read-out: PPB

- AUC(0-t) at 8 h [1]: 13 µM·h
- EC50 [2]: 178 nM
- bioavailability [3]: 65%
- half-life [4]: 198 min
- Cmax [5]: 22.7 µM
- bioavailability [6]: 66%
- IC50 [7]: > 98.4 µM
- Cmax [9]: 1500 nM
- Cmax [10]: 1400 nM
- bioavailability [11]: 100%
- IC50 (Cytochrome P450 3A4): > 40 µM
- IC50 (Cytochrome P450 2B6): > 40 µM
- AUC(0-t) at 8 h [13]: 9.4 µM·h
- inhibition (Homo sapiens): 12%
- Tmax [14]: 54 min
- clearance [15]: 5.9 mL/min/kg
- fraction unbound [17]: 0.01
SMILES: COC(=O)N(CC(=O)O)Cc1cc(OCc2nc(-c3ccc(Cl)cc3)oc2C)ccc1F
- Activity (Syrian golden hamster [8]): 13%
- IC50 (Cytochrome P450 2C19): > 150 µM
- Activity (Syrian golden hamster [12]): 87%
- Ratio EC50 (HEK293): 1130
- Activity (Syrian golden hamster [16]): 50%

Source: ChEMBL document CHEMBL3826929, “Discovery and Preclinical Evaluation of BMS-711939, an Oxybenzylglycine Based PPARα Selective Agonist” (ACS Med Chem Lett, 2016)
